These results are taken from ChEMBL document CHEMBL1201862, “PubChem BioAssay data set” (2004).

By AC50 is commonly meant the midpoint of the concentration-response curve, whichever way the signal moves. The term EC50 denotes the concentration at which the effect is half-maximal. As a reminder, the IC50 is the concentration at which inhibition is half-maximal. The term CC50 denotes the concentration that lowers cell viability or growth by half.

Activity calls are given as the source filed them.

The nature of test [1]: intracellular Trypanosoma cruzi inhibitors in host cells – cell-based, plate reader, cherry-pick samples, set 3, dose response (AID 651818).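 Also: compounds incubated with infected cells for about four days.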 The class given is functional.
A short description of test [2]: P. falciparum 3D7-ScDHODH growth inhibitors, dose response, SYBR Green, dry powder samples (AID 1159570).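 Also: parasite growth measured after 72 hours of compound exposure.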 The class given is functional, cell-based.
Test [3] is described as follows: HepG2 cell cytotoxicity, dose response, cytotoxicity control, plate reader, dry powder samples (AID 1159569).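 Also: inhibitor potency with signal falling toward the positive control level.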 The class given is functional, cell-based.
Test [4] can be described thus: P. falciparum Dd2 growth inhibitors, dose response, SYBR Green, cherry-picked samples (AID 1159567). The class given is functional, cell-based.
The nature of test [5]: P. falciparum Dd2 growth inhibitors, dose response, SYBR Green, dry powder samples (AID 1159566).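 Also: potency for growth inhibition with lower SYBR green DNA signal.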 In kind it is functional, cell-based.
The nature of test [6]: P. falciparum ATP4 D1247Y mutant growth inhibitors, dose response, NITD609-resistant line, SYBR Green, dry powder (AID 1159571).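 Also: parasites synchronized at ring stage by sorbitol before testing.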 In kind it is functional, cell-based.
Test [7] addresses SWI/SNF-related matrix-associated actin-dependent regulator of chromatin subfamily A member 2 (Homo sapiens, UniProt P51531). Briefly: Luminescence-based cell-based high throughput dose response assay to identify activators of the function of SWI/SNF related, matrix associated, actin dependent regulator of chromatin, subfamily a, member 2 (SMARCA2, BRM). In kind it is functional.

Test [8] in a line: Counterscreen for activators of the function of SWI/SNF related, matrix associated, actin dependent regulator of chromatin, subfamily a, member 2 (SMARCA2, BRM): Luminescence-based cell-based high throughput dose response assay to identify non-selective compounds using the VP16 reporter assay. In kind it is functional.
Test [9] addresses Paired box protein Pax-8 (Homo sapiens, UniProt Q06710). Briefly: inhibitors of PAX8-driven TPO luciferase reporter, dose response, RMG-I cells, cherry-pick (AID 687027).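 Also: luciferase reporter driven by Pax8 target thyroperoxidase promoter measured by SteadyGlo luminescence.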 The class given is functional, cell-based.
The target of test [10] is Kallikrein-7 (Homo sapiens, UniProt P49862). Description: Fluorescence Intensity-based biochemical primary high throughput dose response assay to identify activators of kallikrein-7 (K7) zymogen.
The target in test [11] is T1, Caspase-6 (Homo sapiens, UniProt P55212).
T1 sequence (P55212 whole entry): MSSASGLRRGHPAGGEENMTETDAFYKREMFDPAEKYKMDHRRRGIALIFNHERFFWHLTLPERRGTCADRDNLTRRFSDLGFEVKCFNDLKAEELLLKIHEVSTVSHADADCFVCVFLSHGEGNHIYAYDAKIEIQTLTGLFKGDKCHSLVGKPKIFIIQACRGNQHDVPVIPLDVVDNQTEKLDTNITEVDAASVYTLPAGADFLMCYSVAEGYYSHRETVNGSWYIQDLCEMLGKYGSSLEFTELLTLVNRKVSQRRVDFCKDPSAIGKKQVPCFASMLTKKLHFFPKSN
Briefly: human caspase-6 inhibitors, dose response, biochemical, VEID-R110 fluorescence, cherry-pick (AID 720632).

Test [12] deals with H9c2. Briefly: cells. The class given is functional, cell-based. Conditions: Rattus norvegicus, H9c2, Myocardium.
Test [13] relates to Vero. Briefly: cells. In kind it is functional. Conditions: Chlorocebus sabaeus.
Test [14] addresses Beta-lactamase (Salmonella choleraesuis (strain SC-B67), UniProt Q5J463). Description: Epi-absorbance-based counterscreen for selective VIM-2 inhibitors: dose response biochemical high throughput screening assay to identify inhibitors of TEM-1 serine-beta-lactamase.
Test [15] deals with T2, Beta-lactamase (Pseudomonas aeruginosa, UniProt Q79MP6). Description: IMP-1 metallo-beta-lactamase inhibitors, dose response, selectivity assay for VIM-2 inhibitor project, biochemical, epi-absorbance (AID 1920).
The target in test [16] is T2, Beta-lactamase. Description: […] counterscreen for selective VIM-2 inhibitors: dose response biochemical high throughput screening assay to identify inhibitors of IMP-1 metallo-beta-lactamase. In general terms: Counterscreens check selectivity or assay interference.
Test [17] deals with T3, Carboxy-terminal domain RNA polymerase II polypeptide A small phosphatase 1 (Homo sapiens, UniProt Q9GZU7).
T3 sequence (Q9GZU7 whole entry): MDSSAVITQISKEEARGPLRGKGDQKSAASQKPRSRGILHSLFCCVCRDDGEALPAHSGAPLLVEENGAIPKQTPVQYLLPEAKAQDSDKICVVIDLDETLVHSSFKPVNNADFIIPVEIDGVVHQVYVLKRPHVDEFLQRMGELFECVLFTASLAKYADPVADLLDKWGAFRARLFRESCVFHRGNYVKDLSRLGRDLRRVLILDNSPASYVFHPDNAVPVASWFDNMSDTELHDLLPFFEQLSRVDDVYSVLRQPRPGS
Description: inhibitors of CTDSP1, concentration-response testing, biochemical assay, absorbance-based, actives from ultra-high-throughput screening (AID 540297). The class given is functional.

Test [18] can be described thus: HeLa cell cytotoxicity, dose response, cytotoxicity control for MgcRacGAP inhibitor project (AID 624300). In kind it is functional.
The target of test [19] is T4, Rac GTPase-activating protein 1 (Homo sapiens, UniProt Q9H0H5).
T4 sequence (Q9H0H5 whole entry): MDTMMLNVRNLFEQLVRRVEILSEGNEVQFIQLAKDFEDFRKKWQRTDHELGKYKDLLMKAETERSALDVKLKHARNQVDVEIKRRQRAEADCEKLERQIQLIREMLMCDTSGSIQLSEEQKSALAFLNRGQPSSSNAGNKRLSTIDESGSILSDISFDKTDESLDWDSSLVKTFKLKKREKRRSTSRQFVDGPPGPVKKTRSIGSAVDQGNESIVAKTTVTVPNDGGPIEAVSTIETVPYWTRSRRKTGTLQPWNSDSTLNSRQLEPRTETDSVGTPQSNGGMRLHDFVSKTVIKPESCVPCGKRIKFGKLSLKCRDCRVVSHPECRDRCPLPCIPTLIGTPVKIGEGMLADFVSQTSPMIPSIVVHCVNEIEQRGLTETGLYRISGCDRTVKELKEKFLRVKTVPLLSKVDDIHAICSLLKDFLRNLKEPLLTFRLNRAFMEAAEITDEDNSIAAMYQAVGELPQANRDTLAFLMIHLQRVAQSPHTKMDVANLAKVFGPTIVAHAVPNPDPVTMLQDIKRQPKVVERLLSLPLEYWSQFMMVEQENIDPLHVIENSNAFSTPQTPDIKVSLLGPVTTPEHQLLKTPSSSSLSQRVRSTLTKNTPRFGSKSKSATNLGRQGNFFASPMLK
Description: MgcRacGAP GTPase-activating activity inhibitors, confirmation, biochemical, ADP Hunter fluorescence, primary and confirmatory (AID 624330). The class given is functional.

Test [20] addresses T5, DNA repair protein RAD52 homolog (Homo sapiens, UniProt P43351).
T5 sequence (P43351 whole entry): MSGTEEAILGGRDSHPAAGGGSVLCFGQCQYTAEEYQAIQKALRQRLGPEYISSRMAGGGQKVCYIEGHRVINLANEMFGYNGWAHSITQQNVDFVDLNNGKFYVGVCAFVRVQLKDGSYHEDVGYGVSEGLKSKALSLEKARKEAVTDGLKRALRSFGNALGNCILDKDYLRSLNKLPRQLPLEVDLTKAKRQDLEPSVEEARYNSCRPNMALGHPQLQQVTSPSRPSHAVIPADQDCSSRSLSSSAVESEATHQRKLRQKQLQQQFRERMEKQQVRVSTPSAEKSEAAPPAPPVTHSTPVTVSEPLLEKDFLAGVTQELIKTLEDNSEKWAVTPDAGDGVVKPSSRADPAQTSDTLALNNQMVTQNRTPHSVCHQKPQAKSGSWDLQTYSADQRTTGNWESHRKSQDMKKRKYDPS
In kind it is functional, biochemical.

Test [21] concerns the target T6, Heat shock factor protein 1 (Mus musculus, UniProt P38532).
T6 sequence (P38532 whole entry): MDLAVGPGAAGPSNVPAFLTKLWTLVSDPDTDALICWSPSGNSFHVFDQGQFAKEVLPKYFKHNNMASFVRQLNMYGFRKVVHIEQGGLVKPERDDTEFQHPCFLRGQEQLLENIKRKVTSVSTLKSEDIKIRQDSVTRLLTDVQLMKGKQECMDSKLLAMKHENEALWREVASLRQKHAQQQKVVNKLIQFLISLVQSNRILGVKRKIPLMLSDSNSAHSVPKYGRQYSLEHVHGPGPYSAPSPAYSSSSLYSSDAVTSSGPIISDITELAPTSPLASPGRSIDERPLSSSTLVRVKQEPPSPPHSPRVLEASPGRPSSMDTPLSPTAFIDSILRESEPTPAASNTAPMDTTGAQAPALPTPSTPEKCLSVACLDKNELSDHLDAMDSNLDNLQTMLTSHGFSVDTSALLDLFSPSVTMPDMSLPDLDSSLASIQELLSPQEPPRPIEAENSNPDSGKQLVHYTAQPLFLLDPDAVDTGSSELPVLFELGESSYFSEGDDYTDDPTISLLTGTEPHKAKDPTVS
Description: inhibition of MG132-induced HSE-luciferase signal, confirmation, cell-based, NIH3T3, luminescence, dose retest (AID 2382).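 Also: NIH3T3 fibroblasts with HSF1-driven luciferase reporter stressed by proteasome inhibitor MG132; luminescence from HSF1-driven luciferase expression after 8 hours of MG132 stress.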 In kind it is functional.

Test [22] deals with Mu-type opioid receptor (Homo sapiens, UniProt P35372). The class given is functional, cell-based.
The target of test [23] is 5-hydroxytryptamine receptor 2A (Mus musculus, UniProt P35363). The class given is functional, cell-based.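 Also: CHO-K1 cells with tagged receptor and beta-arrestin; agonist potency measured as compound-induced activation of the receptor.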
The nature of test [24]: non-specific cell cytotoxicity, dose response, cytotoxicity control for PAX8 inhibitor project, plate reader, dry powder samples (AID 743021). The class given is functional, cell-based.

Chain of Paired box protein Pax-8 (Q06710 whole entry): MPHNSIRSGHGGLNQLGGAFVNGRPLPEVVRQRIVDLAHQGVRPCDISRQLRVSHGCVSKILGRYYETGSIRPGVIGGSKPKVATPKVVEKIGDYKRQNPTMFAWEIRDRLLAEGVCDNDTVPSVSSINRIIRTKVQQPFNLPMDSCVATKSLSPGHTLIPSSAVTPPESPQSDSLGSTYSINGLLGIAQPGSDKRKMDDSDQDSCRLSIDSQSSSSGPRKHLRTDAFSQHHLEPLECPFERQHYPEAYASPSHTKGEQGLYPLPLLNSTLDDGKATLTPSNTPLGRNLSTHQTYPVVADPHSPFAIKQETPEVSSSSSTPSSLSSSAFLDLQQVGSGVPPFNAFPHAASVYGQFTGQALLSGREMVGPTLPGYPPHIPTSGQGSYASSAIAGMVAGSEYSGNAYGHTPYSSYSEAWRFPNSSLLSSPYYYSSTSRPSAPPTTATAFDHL
Chain of SWI/SNF-related matrix-associated actin-dependent regulator of chromatin subfamily A member 2 (P51531 whole entry): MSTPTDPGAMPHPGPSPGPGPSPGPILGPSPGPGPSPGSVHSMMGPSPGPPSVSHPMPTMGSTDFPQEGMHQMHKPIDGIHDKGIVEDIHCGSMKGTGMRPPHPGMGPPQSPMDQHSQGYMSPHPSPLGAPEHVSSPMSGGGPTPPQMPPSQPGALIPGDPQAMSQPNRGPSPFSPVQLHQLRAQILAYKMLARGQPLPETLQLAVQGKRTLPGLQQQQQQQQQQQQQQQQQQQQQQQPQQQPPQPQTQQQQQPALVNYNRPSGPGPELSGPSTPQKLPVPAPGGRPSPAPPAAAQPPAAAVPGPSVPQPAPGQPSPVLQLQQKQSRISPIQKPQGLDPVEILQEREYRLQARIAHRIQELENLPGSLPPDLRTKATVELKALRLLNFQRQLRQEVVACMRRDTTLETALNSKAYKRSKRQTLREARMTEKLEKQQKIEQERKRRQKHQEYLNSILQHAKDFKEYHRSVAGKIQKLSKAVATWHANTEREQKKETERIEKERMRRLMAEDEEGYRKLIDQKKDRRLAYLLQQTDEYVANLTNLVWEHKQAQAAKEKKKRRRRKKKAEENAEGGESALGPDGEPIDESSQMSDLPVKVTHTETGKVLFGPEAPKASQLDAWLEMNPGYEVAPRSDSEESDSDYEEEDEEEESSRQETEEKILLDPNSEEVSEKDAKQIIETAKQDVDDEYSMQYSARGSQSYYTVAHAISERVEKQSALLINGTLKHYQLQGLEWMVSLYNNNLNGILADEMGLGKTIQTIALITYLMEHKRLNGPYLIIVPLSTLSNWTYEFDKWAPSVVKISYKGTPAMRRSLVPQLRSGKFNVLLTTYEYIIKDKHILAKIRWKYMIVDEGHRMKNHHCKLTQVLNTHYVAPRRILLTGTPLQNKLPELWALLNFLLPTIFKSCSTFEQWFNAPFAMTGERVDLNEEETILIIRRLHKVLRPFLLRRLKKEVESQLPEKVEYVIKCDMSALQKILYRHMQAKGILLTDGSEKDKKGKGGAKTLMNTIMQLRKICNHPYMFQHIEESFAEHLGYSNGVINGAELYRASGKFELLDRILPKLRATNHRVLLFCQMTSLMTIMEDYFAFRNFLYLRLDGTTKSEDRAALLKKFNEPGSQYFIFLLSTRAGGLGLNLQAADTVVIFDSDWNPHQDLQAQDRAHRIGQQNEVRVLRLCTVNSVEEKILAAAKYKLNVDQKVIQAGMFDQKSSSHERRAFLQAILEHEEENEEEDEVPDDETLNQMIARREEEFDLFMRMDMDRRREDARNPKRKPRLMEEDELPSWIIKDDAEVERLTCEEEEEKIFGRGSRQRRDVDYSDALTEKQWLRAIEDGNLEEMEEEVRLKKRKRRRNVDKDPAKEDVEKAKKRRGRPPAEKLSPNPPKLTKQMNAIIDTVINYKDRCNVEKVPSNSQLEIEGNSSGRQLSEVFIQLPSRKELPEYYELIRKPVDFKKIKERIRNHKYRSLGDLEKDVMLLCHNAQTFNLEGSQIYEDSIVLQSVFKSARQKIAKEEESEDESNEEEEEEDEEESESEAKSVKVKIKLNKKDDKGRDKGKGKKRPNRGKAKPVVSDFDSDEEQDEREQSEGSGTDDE
Chain of Kallikrein-7 (P49862 whole entry): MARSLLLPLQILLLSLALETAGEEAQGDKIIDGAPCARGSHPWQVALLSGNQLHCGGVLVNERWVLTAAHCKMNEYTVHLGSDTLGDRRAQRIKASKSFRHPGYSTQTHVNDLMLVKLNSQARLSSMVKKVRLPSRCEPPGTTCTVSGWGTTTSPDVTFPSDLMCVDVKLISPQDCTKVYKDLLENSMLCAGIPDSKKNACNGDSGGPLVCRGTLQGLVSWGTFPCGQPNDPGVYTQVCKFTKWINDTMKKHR
Chain of Mu-type opioid receptor (P35372 whole entry): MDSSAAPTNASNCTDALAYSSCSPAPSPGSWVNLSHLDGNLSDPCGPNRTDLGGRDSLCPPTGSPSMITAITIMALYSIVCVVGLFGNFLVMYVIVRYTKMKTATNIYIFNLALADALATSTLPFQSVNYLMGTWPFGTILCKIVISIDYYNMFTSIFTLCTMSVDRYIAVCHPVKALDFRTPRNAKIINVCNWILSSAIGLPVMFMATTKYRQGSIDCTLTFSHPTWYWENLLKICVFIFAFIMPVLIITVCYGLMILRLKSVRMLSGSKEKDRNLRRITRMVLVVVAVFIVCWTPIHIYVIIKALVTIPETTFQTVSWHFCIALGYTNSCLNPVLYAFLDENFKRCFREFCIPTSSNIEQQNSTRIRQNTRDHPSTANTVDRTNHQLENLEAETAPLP
Chain of 5-hydroxytryptamine receptor 2A (P35363 whole entry): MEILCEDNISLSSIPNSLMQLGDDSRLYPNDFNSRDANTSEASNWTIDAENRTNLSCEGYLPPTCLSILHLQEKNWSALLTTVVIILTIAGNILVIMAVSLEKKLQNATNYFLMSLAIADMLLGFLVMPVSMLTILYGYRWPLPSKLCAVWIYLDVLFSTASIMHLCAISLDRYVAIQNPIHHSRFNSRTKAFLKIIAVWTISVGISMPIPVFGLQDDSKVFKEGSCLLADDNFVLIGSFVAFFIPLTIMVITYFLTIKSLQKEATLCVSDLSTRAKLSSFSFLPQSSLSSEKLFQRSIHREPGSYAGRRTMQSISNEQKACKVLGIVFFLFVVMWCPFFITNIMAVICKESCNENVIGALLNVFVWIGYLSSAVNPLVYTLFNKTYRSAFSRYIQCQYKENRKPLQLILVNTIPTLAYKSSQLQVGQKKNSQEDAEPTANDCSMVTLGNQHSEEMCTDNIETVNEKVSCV
T2 sequence (Q79MP6 whole entry): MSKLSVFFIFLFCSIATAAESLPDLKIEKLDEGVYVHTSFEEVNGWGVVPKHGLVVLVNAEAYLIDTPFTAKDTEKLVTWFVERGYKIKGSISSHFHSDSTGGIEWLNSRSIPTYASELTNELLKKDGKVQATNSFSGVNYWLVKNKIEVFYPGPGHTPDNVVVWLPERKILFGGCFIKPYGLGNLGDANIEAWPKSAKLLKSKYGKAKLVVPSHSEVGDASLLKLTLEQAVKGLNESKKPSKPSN
Chain of Beta-lactamase (Salmonella choleraesuis (strain SC-B67), UniProt Q5J463) (Q5J463 whole entry): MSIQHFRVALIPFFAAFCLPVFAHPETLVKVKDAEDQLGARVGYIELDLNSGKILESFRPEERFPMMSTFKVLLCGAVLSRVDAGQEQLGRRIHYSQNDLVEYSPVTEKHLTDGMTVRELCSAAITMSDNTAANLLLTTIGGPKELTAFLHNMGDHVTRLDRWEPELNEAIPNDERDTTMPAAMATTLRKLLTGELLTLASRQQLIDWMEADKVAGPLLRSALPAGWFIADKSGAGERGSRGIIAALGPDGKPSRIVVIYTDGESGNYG

Regarding `C[C@@H]1CN([C@H](C)CO)C(=O)c2cccc(NC(=O)CCCCCC(=O)Nc3ccccc3N)c2O[C@@H]1CN(C)S(=O)(=O)c1ccccc1`, the AC50 in [1] was 3.26 µM (active); in test [2], 0.507 µM (active); in test [3], 70.7 µM (active); in test [4], 0.989 µM (active); in [5] it was 0.573 µM (active); in test [6], 0.549 µM (active).

As for `CC(C)=CCNc1ncnc2c1c(C#N)cn2C1OC(CO)C(O)C1O` (stereo not given), the EC50 in test [7] and in test [8] was > 91.1 µM (inactive) in each case. In addition, the half-maximal activity concentration (AC50) in [9] is 3.79 µM (active).

As for `OC[C@@H]1[C@H](c2ccc(C3=CCCC3)cc2)[C@@H](CNC2CCCC2)N1CC1CC1`, the AC50 in [2] was 1.2 µM (active); in test [3], 21.1 µM (active); in test [4], 1.52 µM (active); in test [5], 0.843 µM (active); in [6], 0.78 µM (active).

Consider `CC(=O)Nc1ccc(C2Nc3ccccc3C(=O)N2C2CCCCC2)cc1` (stereo not given), for which, in test [10], the EC50 was > 69.5 µM (inactive).

Consider `Nc1nc(-c2ccccc2)nc(O)c1N=O`, for which, in test [11], the AC50 is 11.6 µM (active).

As for `NC(=O)c1ccsc1NC(=O)c1ccc([N+](=O)[O-])o1`, the IC50 in test [12] is > 79 µM (inactive). Further, the CC50 in test [13] is 11.7 µM (active). Further, the EC50 in [7] and in [8] was > 91.1 µM (inactive) throughout. For the same compound, the concentration at half-maximal activity (AC50) in test [9] is 3.8 µM (active).

`Cc1cccn2c(=O)c3cc(C(=O)NC4CCS(=O)(=O)C4)sc3nc12` (stereo not given): the EC50 in [10] is 25.1 µM (inactive).

In the case of `Nc1nccnc1C(=O)OCc1nc2sc3c(c2c(=O)[nH]1)CCCC3`, the EC50 in test [10] is 6.32 µM (active).

Turning to `C[C@H](CO)N1C[C@H](C)[C@@H](CN(C)Cc2cccc(C(=O)Nc3ccccc3N)c2)OCc2ccccc2-c2c(n(C)c3ccccc23)C1=O`, the AC50 is 0.944 µM (active) in test [2]; 72.9 µM (active) in [3]; 1.21 µM (active) in test [4]; 1.12 µM (active) in test [5]; 0.949 µM (active) in [6].

Take `O=C(O)C(NC(=O)c1ccccc1)=C(Cl)Cl`: the IC50 in test [14], in test [15] and in test [16] was > 59.6 µM (inactive) each time.

With `O=C1CN(C(=O)COC(=O)c2ccc([N+](=O)[O-])o2)c2ccccc2N1`, in test [11], the concentration at half-maximal activity (AC50) was 15.1 µM (active).

Take `Nc1cc([N+](=O)[O-])ccc1N1C(=O)CCCC1=O`: the IC50 in [17] is 10.8 µM (active). The half-maximal activity concentration (AC50) in [11] was 18.3 µM (active).

Take `Cc1cc(C)cc(NC(=O)Cc2ccc(S(=O)(=O)N3CCCC3)s2)c1`: the AC50 in [11] is 24.2 µM (active).

As for `COc1cccc(NC(=O)N(C)C[C@@H]2Oc3cc(C#Cc4ccc(F)cc4)ccc3S(=O)(=O)N([C@@H](C)CO)C[C@@H]2C)c1`, the half-maximal activity concentration (AC50) is 1.04 µM (active) in test [2]; > 100 µM (inactive) in [3]; 2 µM (active) in [4]; 1.18 µM (active) in test [5]; 1.22 µM (active) in [6].

Consider `COc1cc2c[n+](C)c3c4ccccc4ccc3c2cc1OC`, for which the CC50 in [18] is 66 µM (active). Further, the IC50 in test [19] was 60.5 µM (active). In addition, the EC50 in [7] and in [8] was > 91.1 µM (inactive) throughout. Also, the AC50 in [20] is 0.36 µM (active).

Turning to `c1ccc(COc2cccc(CN3CCN(c4ccccn4)CC3)c2)cc1`, the values for the concentration for a half-maximal effect (EC50) in test [21], in test [22] and in [23] were > 195 µM (not active), 92.5 µM (inactive) and 0.022 µM (active), respectively.

Consider `O=C(C(=O)N(Cc1ccccc1)Cc1ccccc1)c1c(-c2ccccc2)[nH]c2ccccc12`, for which, in [12], the IC50 was > 79 µM (inactive). In addition, the AC50 in test [9] was 7.45 µM (active); in test [24], 44.5 µM (active).

With `CCOc1ccc(NC(=O)CCN2CCN(c3ccccc3F)CC2)cc1`, the EC50 in test [22] was 92.6 µM (inactive); in [23], 0.0925 µM (active).

As to `CCN(CC)C(=O)N[C@H]1C[C@@H]2c3cccc4[nH]cc(c34)C[C@H]2N(C)C1` [TERGURIDE], the EC50 in [22] is 92.5 µM (inactive); in [23], 0.0038 µM (active).
